Test results published in PMC5698418 (Nature Communications, 2017).
Structures can show the parent of a compound that is named as a salt. Where two headings read alike, the source gives them in different places.

Test system: BDNF-induced nuclear Arc expression in primary cortical neurons
Test: Chemogenomic screen: high-content image-based assay of BDNF-induced nuclear Arc expression (96-well)
Format: cell-based, mouse
Protocol: To increase the throughput of our pharmacological screening for modulators of Arc, the above mentioned assay was adapted to cultures of mouse primary cortical neurons in 96-well plates.
All 319 compounds were initially tested at a final concentration of 16.7 µM with three biological replicates.
Screening of compounds in the chemogenomic library was carried out using DIV13 primary forebrain cortical neurons cultured on poly-L-lysine/laminin-coated 96-well plates (Ibidi USA, Madison, WI). Cells were seeded at a density of 30,000 cells per well and treated with the compound library and BDNF according to the experimental design presented in Fig. 3a. After experimental treatment, cells were processed for Arc and acetyl-H3K9 immunocytochemistry according to the protocol described above. Both antigens (Arc and acetyl-H3K9) were imaged using an IN Cell Analyzer 6000 imaging system and a ×40 objective. […] High-throughput quantification of nuclear Arc immunofluorescence signal was performed in a similar fashion than the low-throughput procedure described above but with the exception that acetyl-H3K9 was used as a nuclear mask to guide the automated quantification of nuclear Arc immunofluorescence signal.

[1] = chemogenomic (SMART) screen, BDNF-induced nuclear Arc expression, primary cortical neurons, BDNF control 19.5
[2] = nuclear Arc-positive cells relative to DMSO + BDNF control, negative values = decrease
[3] = BDNF-induced nuclear Arc expression, primary cortical neurons, chemogenomic screen

Row | Compound | Percentage of cell with nuclear Arc immunostaining above 2σ threshold [1] [%] | Fold-change — Normalized to DMSO control (BDNF) [2] [fold] | other results
1 | OCCOCCN1CCN(C(c2ccccc2)c2ccc(Cl)cc2)CC1 (stereo not drawn) [Hydroxyzine dihydrochloride] | 27.2 | 1.4 | –
2 | CC1Nc2ccc(Cl)cc2S(=O)(=O)N1 (stereo not drawn) [IDRA-21] | 12.2 | -1.6 | –
3 | Cn1cc(C2=C(c3coc4ccccc34)C(=O)NC2=O)c2cc(Br)ccc21 [ING-135] | – | 1.7 | Percentage of cell with nuclear Arc immunostaining above 2σ threshold: 34.1%
4 | O=C(O)c1ccc(O)c2ncccc12 [IOX1] | 44.2 | 2.3 | –
5 | O=C(O)CNC(=O)c1c(O)c2ccccc2n(Cc2ccccc2)c1=O [IOX2] | 45.4 | 2.3 | –
6 | CC(C)(N)C(=O)N[C@H](COCc1ccccc1)C(=O)N1CCC2(CC1)CN(S(C)(=O)=O)c1ccccc12 [Ibutamoren] | – | – | Percentage of cell with nuclear Arc immunostaining above 2σ threshold [3]: 7.1%
7 | COc1ccc(-c2oc3c(CC=C(C)C)c(O[C@@H]4O[C@H](CO)[C@@H](O)[C@H](O)[C@H]4O)cc(O)c3c(=O)c2O[C@@H]2O[C@@H](C)[C@H](O)[C@@H](O)[C@H]2O)cc1 [Icariin] | 43.8 | 2.2 | –
8 | Cl.c1ccc2c(c1)OCC(C1=NCCN1)O2 (stereo not drawn) [Idazoxan hydrochloride, RX 781094] | 24.1 | 1.2 | –
9 | COc1cc(C(C)=O)ccc1OCCCN1CCC(c2noc3cc(F)ccc23)CC1 [Iloperidone] | – | – | Percentage of cell with nuclear Arc immunostaining above 2σ threshold [3]: 8.3%
10 | CNC1CC(c2ccc(Cl)c(Cl)c2)c2ccccc21 (stereo not drawn) [Indatraline] | – | – | Percentage of cell with nuclear Arc immunostaining above 2σ threshold: 0.0%
11 | O=C1c2ccccc2S(=O)(=O)N1CCCCN1CCN(c2ncccn2)CC1 [Ipsapirone] | 27.4 | 1.4 | –
12 | Cc1cc(C(=O)NNCc2ccccc2)no1 [Isocarboxazid] | 21.2 | 1.1 | –
13 | COc1ccc(C(=O)NCc2ccc(OCCN(C)C)cc2)cc1OC.Cl [Itopride hydrochloride] | – | 1.2 | Percentage of cell with nuclear Arc immunostaining above 2σ threshold: 23.8%
14 | O=c1c(O)c(-c2ccc(O)cc2)oc2cc(O)cc(O)c12 [Kaempferol] | – | – | Percentage of cell with nuclear Arc immunostaining above 2σ threshold [3]: 4.0%
15 | COC1=CC(=O)O[C@@H](/C=C/c2ccc3c(c2)OCO3)C1 [Kavahin] | – | 1.9 | Percentage of cell with nuclear Arc immunostaining above 2σ threshold: 36.5%
16 | COC1=CC(=O)O[C@@H](/C=C/c2ccccc2)C1 [Kavain] | – | 1.8 | Percentage of cell with nuclear Arc immunostaining above 2σ threshold: 34.3%
17 | O=C(c1ccc(F)cc1)C1CCN(CCn2c(=O)[nH]c3ccccc3c2=O)CC1 [Ketanserin] | 20.4 | 1.0 | –
18 | O=C(c1ccccc1)c1ccc2n1CCC2C(=O)O (stereo not drawn) [Ketorolac] | 36.8 | 1.9 | –
19 | CN1CCC(=C2c3ccccc3CC(=O)c3sccc32)CC1 [Ketotifen] | 12.3 | – | –
20 | COC[C@@H](NC(C)=O)C(=O)NCc1ccccc1 [Lacosamide] | – | – | Percentage of cell with nuclear Arc immunostaining above 2σ threshold: 6.7%
21 | Nc1nnc(-c2cccc(Cl)c2Cl)c(N)n1 [Lamotrigine] | – | – | Percentage of cell with nuclear Arc immunostaining above 2σ threshold [3]: 4.8%
22 | Cc1ccc2c(c1)c1c(n2CCc2ccc(C)nc2)CCN(C)C1 [Latrepirdine] | 34.3 | 1.8 | –

Row | Compound | Percentage of cell with nuclear Arc immunostaining above 2σ threshold [1] [%] | Fold-change — Normalized to DMSO control (BDNF) [2] [fold] | other results
23 | CC[C@@H](C(N)=O)N1CCCC1=O [Levetiracetam] | – | – | Percentage of cell with nuclear Arc immunostaining above 2σ threshold [3]: 7.9%
24 | C[N+](C)(C)C[C@H](O)CC(=O)[O-] [Levocarnitine] | – | – | Percentage of cell with nuclear Arc immunostaining above 2σ threshold [3]: 10.1%
25 | CCN1CCC[C@H]1CNC(=O)c1cc(S(N)(=O)=O)ccc1OC [Levosulpiride] | 28.2 | 1.4 | –
26 | CN1CCN(C2=Nc3ccccc3Oc3ccc(Cl)cc32)CC1 [Loxapine] | 21.2 | 1.1 | –
27 | O=C1[C@@H]2[C@H]3CC[C@H](C3)[C@@H]2C(=O)N1C[C@@H]1CCCC[C@H]1CN1CCN(c2nsc3ccccc23)CC1 [Lurasidone] | 39.0 | 2.0 | –
28 | O=c1cc(-c2ccc(O)c(O)c2)oc2cc(O)cc(O)c12 [Luteolin] | 22.1 | 1.1 | –
29 | CNC1(C)C2CCC(C2)C1(C)C (stereo not drawn) [Mecamylamine] | – | – | Percentage of cell with nuclear Arc immunostaining above 2σ threshold [3]: 11.9%
30 | CN(C)CCOC(=O)COc1ccc(Cl)cc1.Cl [Meclofenoxate hydrochloride] | – | 1.4 | Percentage of cell with nuclear Arc immunostaining above 2σ threshold: 28.2%
31 | COc1ccc2[nH]cc(CCNC(C)=O)c2c1 [Melatonin] | 25.2 | 1.3 | –
32 | CC12CC3CC(C)(C1)CC(N)(C3)C2 [Memantine] | 17.1 | – | –
33 | CC(=O)/N=c1/sc(S(N)(=O)=O)nn1C [Methazolamide] | – | – | Percentage of cell with nuclear Arc immunostaining above 2σ threshold [3]: 11.8%
34 | CN1CCCC(CC2c3ccccc3Sc3ccccc32)C1 (stereo not drawn) [Metixene] | – | – | Percentage of cell with nuclear Arc immunostaining above 2σ threshold [3]: 6.7%
35 | CN1CCN2c3ccccc3Cc3ccccc3C2C1 (stereo not drawn) [Mianserin] | 18.5 | – | –
36 | CC#C[C@]1(O)CC[C@H]2[C@@H]3CCC4=CC(=O)CCC4=C3[C@@H](c3ccc(N(C)C)cc3)C[C@@]21C [Mifepristone] | 43.7 | 2.2 | –
37 | CCN(CC)C(=O)C1(c2ccccc2)CC1CN (stereo not drawn) [Milnacipran] | 13.2 | – | –
38 | Cc1cc(-c2ccccc2)nnc1NCCN1CCOCC1 [Minaprine] | 21.8 | 1.1 | –
39 | CN1CCN2c3ncccc3Cc3ccccc3C2C1 (stereo not drawn) [Mirtazapine] | – | – | Percentage of cell with nuclear Arc immunostaining above 2σ threshold [3]: 4.5%
40 | O=C(NCCN1CCOCC1)c1ccc(Cl)cc1 [Moclobemide] | – | – | Percentage of cell with nuclear Arc immunostaining above 2σ threshold [3]: 8.9%
41 | CCc1c(C)[nH]c2c1C(=O)C(CN1CCOCC1)CC2 (stereo not drawn) [Molindone] | 36.4 | 1.9 | –
42 | NC(=O)C1=CN([C@@H]2O[C@H](COP(=O)(O)OP(=O)(O)OC[C@H]3O[C@@H](n4cnc5c(N)ncnc54)[C@H](O)[C@@H]3O)[C@@H](O)[C@H]2O)C=CC1 [NADH] | 25.0 | 1.3 | –
43 | O=C(O)c1cc2cc(O)c(O)cc2c(C(=O)c2ccc(O)c(O)c2)n1 [NBI-31772] | – | – | Percentage of cell with nuclear Arc immunostaining above 2σ threshold: 2.7%; Fold-change — Normalized to DMSO control (BDNF) (nuclear Arc-positive cells relative to DMSO control (BDNF), negative = decrease): -7.3 fold
